Measurements taken from patent US9586928B2 (The Scripps Research Institute, priority 2011, dated 2017).

Columns and labels:
Type in all cases: cell-based
Conditions in all cases: 10 μM
[1] = target: T1, RORα (Homo sapiens, UniProt P35398); test: Gal4-RORα LBD / UAS luciferase cotransfection assay
T1 construct: expressed in transfected cells; host or cells: HEK293T
T1 sequence (P35398 272-510 limits assumed): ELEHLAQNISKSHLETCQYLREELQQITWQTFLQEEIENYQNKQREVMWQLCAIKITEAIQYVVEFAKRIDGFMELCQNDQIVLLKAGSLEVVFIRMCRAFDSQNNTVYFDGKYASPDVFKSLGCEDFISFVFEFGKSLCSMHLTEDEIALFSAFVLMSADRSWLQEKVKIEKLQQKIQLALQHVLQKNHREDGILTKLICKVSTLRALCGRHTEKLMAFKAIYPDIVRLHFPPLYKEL

[2] = target: T2, RORγ (Homo sapiens, UniProt P51449); test: Gal4-RORγ LBD / UAS luciferase cotransfection assay
T2 construct: expressed in transfected cells; host or cells: HEK293T
T2 sequence (P51449 269-508 limits assumed): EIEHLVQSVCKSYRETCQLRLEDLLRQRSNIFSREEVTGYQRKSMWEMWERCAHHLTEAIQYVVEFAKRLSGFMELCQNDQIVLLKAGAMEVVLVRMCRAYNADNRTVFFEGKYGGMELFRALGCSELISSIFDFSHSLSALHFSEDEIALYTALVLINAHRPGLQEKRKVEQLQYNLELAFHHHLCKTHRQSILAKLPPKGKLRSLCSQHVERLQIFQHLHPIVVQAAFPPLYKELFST

[3] = system: VP16; test: Gal4 DBD-VP16 / UAS luciferase control assay
Method: (§1) The cells were treated with either DMSO or various compounds as indicated four hours after replating. Following additional 20 hour incubation, luciferase levels were assayed by one-step addition of 20 μL BriteLite (Perkin Elmer) and read using an Envision multilabel plate reader (Perkin Elmer).

[4] = target: T3, LXR (Homo sapiens, UniProt Q13133); test: Gal4-LXRα / UAS luciferase cotransfection assay
T3 sequence (Q13133 209-447 limits assumed): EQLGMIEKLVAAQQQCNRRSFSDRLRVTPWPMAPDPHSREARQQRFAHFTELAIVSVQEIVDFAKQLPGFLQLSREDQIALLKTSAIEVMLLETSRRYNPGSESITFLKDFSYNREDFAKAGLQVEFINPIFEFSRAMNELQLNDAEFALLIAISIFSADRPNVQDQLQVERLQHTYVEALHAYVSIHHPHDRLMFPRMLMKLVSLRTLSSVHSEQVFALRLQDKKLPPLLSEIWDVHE
Method: as §1
Cotransfection assays were performed as previously described in HEK293 cells (Gal4 cotransfection assay or IL-17 luciferase reporter)[8]. HEK293 and the mouse lymphoma EL4 (ATCC) cells were maintained in DMEM supplemented with 10% FBS plus antibiotics (penicillin and streptomycin; Invitrogen).

Compound | RORα repression, fold change over DMSO [1] | RORγ repression, fold change over DMSO [2] | VP16 repression, fold change over DMSO [3] | LXR activation, fold change over DMSO [4]
O=C(C1CCCO1)N1CCN(Cc2ccc(-c3ccc(C(O)(C(F)(F)F)C(F)(F)F)cc3)cc2)CC1 (stereo not shown) [Compound 16, (4-((4′-(1,1,1,3,3,3-Hexafluoro-2-hydroxypropan-2-yl)-[1,1′-biphenyl]-4-yl)methyl)piperazin-1-yl)(tetrahydrofuran-2-yl)methanone] | 0.8 fold change over DMSO | 0.6 fold change over DMSO | 0.6 fold change over DMSO | 1.4 fold change over DMSO
OC(c1ccc(-c2ccc(CN3CCN(Cc4cccs4)CC3)cc2)cc1)(C(F)(F)F)C(F)(F)F [Compound 19, 1,1,1,3,3,3-Hexafluoro-2-(4′-((4-(thiophen-2-ylmethyl)piperazin-1-yl)methyl)-[1,1′-biphenyl]-4-yl)propan-2-ol] | 0.75 fold change over DMSO | 0.5 fold change over DMSO | 0.4 fold change over DMSO | 1.5 fold change over DMSO
OC(c1ccc(-c2ccc(CN3CCN(Cc4cc5cc(F)ccc5[nH]4)CC3)cc2)cc1)(C(F)(F)F)C(F)(F)F [Compound 20, 1,1,1,3,3,3-Hexafluoro-2-(4′-((4-((5-fluoro-1H-indol-2-yl)methyl)piperazin-1-yl)methyl)-[1,1′-biphenyl]-4-yl)propan-2-ol] | 0.1 fold change over DMSO | 0.05 fold change over DMSO | 0.1 fold change over DMSO | 2.5 fold change over DMSO
OC(c1ccc(-c2ccc(CN3CCN(CC4COc5ccccc5O4)CC3)cc2)cc1)(C(F)(F)F)C(F)(F)F (stereo not shown) [Compound 21, 2-(4′-((4-((2,3-Dihydrobenzo[b][1,4]dioxin-2-yl)methyl)piperazin-1-yl)methyl)-[1,1′-biphenyl]-4-yl)-1,1,1,3,3,3-hexafluoropropan-2-ol] | 0.45 fold change over DMSO | 0.35 fold change over DMSO | 0.35 fold change over DMSO | 0.7 fold change over DMSO
CCCNC(=O)N1CCN(Cc2ccc(-c3ccc(C(O)(C(F)(F)F)C(F)(F)F)cc3)cc2)CC1 [Compound 22, 4-((4′-(1,1,1,3,3,3-Hexafluoro-2-hydroxypropan-2-yl)-[1,1′-biphenyl]-4-yl)methyl)-N-propylpiperazine-1-carboxamide] | 0.5 fold change over DMSO | 0.4 fold change over DMSO | 0.4 fold change over DMSO | 1.8 fold change over DMSO
O=C(Nc1ccccc1)N1CCN(Cc2ccc(-c3ccc(C(O)(C(F)(F)F)C(F)(F)F)cc3)cc2)CC1 [Compound 23, 4-((4′-(1,1,1,3,3,3-Hexafluoro-2-hydroxypropan-2-yl)-[1,1′-biphenyl]-4-yl)methyl)-N-phenylpiperazine-1-carboxamide] | 0.9 fold change over DMSO | 0.5 fold change over DMSO | 0.55 fold change over DMSO | 2 fold change over DMSO
O=C(NCc1ccccc1)N1CCN(Cc2ccc(-c3ccc(C(O)(C(F)(F)F)C(F)(F)F)cc3)cc2)CC1 [Compound 24, N-Benzyl-4-((4′-(1,1,1,3,3,3-hexafluoro-2-hydroxypropan-2-yl)-[1,1′-biphenyl]-4-yl)methyl)piperazine-1-carboxamide] | 0.5 fold change over DMSO | 0.25 fold change over DMSO | 0.25 fold change over DMSO | 1.3 fold change over DMSO
CCC(=O)N1CCN(Cc2ccc(-c3ccc(C(O)(C(F)(F)F)C(F)(F)F)cc3)cc2)CC1 [Compound 25, 1-(4-((4′-(1,1,1,3,3,3-Hexafluoro-2-hydroxypropan-2-yl)-[1,1′-biphenyl]-4-yl)methyl)piperazin-1-yl)propan-1-one] | 0.7 fold change over DMSO | 0.45 fold change over DMSO | 0.5 fold change over DMSO | 1 fold change over DMSO
O=C(c1ccccc1)N1CCN(Cc2ccc(-c3ccc(C(O)(C(F)(F)F)C(F)(F)F)cc3)cc2)CC1 [Compound 26, (4-((4′-(1,1,1,3,3,3-Hexafluoro-2-hydroxypropan-2-yl)-[1,1′-biphenyl]-4-yl)methyl)piperazin-1-yl)(phenyl)methanone] | 0.9 fold change over DMSO | 0.8 fold change over DMSO | 0.7 fold change over DMSO | 2 fold change over DMSO
O=C(Cc1ccccc1)N1CCN(Cc2ccc(-c3ccc(C(O)(C(F)(F)F)C(F)(F)F)cc3)cc2)CC1 [Compound 27, 1-(4-((4′-(1,1,1,3,3,3-Hexafluoro-2-hydroxypropan-2-yl)-[1,1′-biphenyl]-4-yl)methyl)piperazin-1-yl)-2-phenylethanone] | 0.5 fold change over DMSO | 0.25 fold change over DMSO | 0.3 fold change over DMSO | 0.8 fold change over DMSO
CS(=O)(=O)N1CCN(Cc2ccc(-c3ccc(C(O)(C(F)(F)F)C(F)(F)F)cc3)cc2)CC1 [Compound 28, 1,1,1,3,3,3-Hexafluoro-2-(4′-((4-(methylsulfonyl)piperazin-1-yl)methyl)-[1,1′-biphenyl]-4-yl)propan-2-ol] | 1.1 fold change over DMSO | 0.5 fold change over DMSO | 0.75 fold change over DMSO | 1.5 fold change over DMSO
O=S(=O)(c1ccccc1)N1CCN(Cc2ccc(-c3ccc(C(O)(C(F)(F)F)C(F)(F)F)cc3)cc2)CC1 [Compound 29, 1,1,1,3,3,3-Hexafluoro-2-(4′-((4-(phenylsulfonyl)piperazin-1-yl)methyl)-[1,1′-biphenyl]-4-yl)propan-2-ol] | 1 fold change over DMSO | 0.8 fold change over DMSO | 0.8 fold change over DMSO | 1.8 fold change over DMSO
O=S(=O)(Cc1ccccc1)N1CCN(Cc2ccc(-c3ccc(C(O)(C(F)(F)F)C(F)(F)F)cc3)cc2)CC1 [Compound 30, 2-(4′-((4-(Benzylsulfonyl)piperazin-1-yl)methyl)-[1,1′-biphenyl]-4-yl)-1,1,1,3,3,3-hexafluoropropan-2-ol] | 1 fold change over DMSO | 0.75 fold change over DMSO | 0.75 fold change over DMSO | 2 fold change over DMSO
OC(c1ccc(-c2ccc(CN3CCN(Cc4ccnc(Br)c4)CC3)cc2)cc1)(C(F)(F)F)C(F)(F)F [Compound 40, 2-(4′-((4-((2-Bromopyridin-4-yl)methyl)piperazin-1-yl)methyl)-[1,1′-biphenyl]-4-yl)-1,1,1,3,3,3-hexafluoropropan-2-ol] | 0.1 fold change over DMSO | 0.05 fold change over DMSO | 0.05 fold change over DMSO | 1 fold change over DMSO
OC(c1ccc(-c2ccc(CN3CCN(CCc4ccncc4)CC3)cc2)cc1)(C(F)(F)F)C(F)(F)F [Compound 41, 1,1,1,3,3,3-Hexafluoro-2-(4′-((4-(2-(pyridin-4-yl)ethyl)piperazin-1-yl)methyl)-[1,1′-biphenyl]-4-yl)propan-2-ol] | 0.5 fold change over DMSO | 0.3 fold change over DMSO | 0.3 fold change over DMSO | 1 fold change over DMSO
OC(c1ccc(-c2ccc(CN3CCN(Cc4nc5ccccc5s4)CC3)cc2)cc1)(C(F)(F)F)C(F)(F)F [Compound 42, 2-(4′-((4-(Benzo[d]thiazol-2-ylmethyl)piperazin-1-yl)methyl)-[1,1′-biphenyl]-4-yl)-1,1,1,3,3,3-hexafluoropropan-2-ol] | 0.4 fold change over DMSO | 0.2 fold change over DMSO | 0.1 fold change over DMSO | 1 fold change over DMSO
